The source of these data is ChEMBL document CHEMBL5113439, “Rationally Designed Amanitins Achieve Enhanced Cytotoxicity” (J Med Chem, 2022).

A short description of series [1]: Cytotoxicity against chinese hamster CHO cells assessed as reduction in cell viability incubated for 72 hrs by MTT assay. It is filed as toxicity, cell-based, Cricetulus griseus.
A short description of series [2]: Cytotoxicity against human HEK293 cells assessed as reduction in cell viability incubated for 72 hrs by MTT assay. It counts as toxicity, cell-based.
The subject of a further series is HeLa. The series is described as follows: Cytotoxicity against human HeLa cells assessed as reduction in cell viability incubated for 72 hrs by MTT assay. It is filed as functional, cell-based.
The test system of the next series is HepG2. Kind of series: Cytotoxicity against human HepG2 cells assessed as reduction in cell viability incubated for 72 hrs by MTT assay. It is filed as functional, cell-based. As to conditions: HepG2, 72 h.
Series [3] can be described thus: Inhibition of RNA polymerase 2 in human HeLa cells nuclear extract using DNA template as substrate incubated for 60 mins by TRA. It counts as subcellular, Nucleus.

Numbered stars: 1 amine (or outer) side, 2 acyl side, 3 side chain; on linkers, the order of the positions; unused ones are H or OH. Bridge positions count the residues as written; N and C are the ends. Square brackets hold non-standard residues; d marks the D form. Peptide text beside a SMILES is read from it. Trp(2-yl) = O=C([C@H](Cc1c([*:3])[nH]c2ccccc12)N[*:1])[*:2]; X4 = O=C([C@H](Cc1c([*:3])[nH]c2ccc(O)cc12)N[*:1])[*:2]; Ile(4R-OH,5-OH) = C[C@H]([C@H](N)C(=O)O)[C@@H](O)CO; X5 = C[C@@H](S[*:3])[C@H](N[*:1])C(=O)[*:2]; X2 = CC[C@H](C)[C@@H](CNNC(=O)[*:2])N[*:1]; X3 = C[C@H](S[*:3])[C@H](N[*:1])C(=O)[*:2]; X1 = CS[C@H](C)[C@H](N[*:1])C(=O)[*:2]; Nva(3-Et) = CCC(CC)[C@H](N)C(=O)O; αMeI = CC[C@H](C)[C@](C)(N)C(=O)O; Hyp = O=C(O)[C@@H]1C[C@@H](O)CN1; Pen = CC(C)(S)[C@H](N)C(=O)O; azaGly = NNC(=O)O

For the compound `CC[C@H](C)[C@@H]1NC(=O)CNC(=O)[C@@H]2Cc3c([nH]c4cc(O)ccc34)[S+]([O-])C[C@H](NC(=O)CNC1=O)C(=O)N[C@@H](CC(N)=O)C(=O)N1C[C@H](O)C[C@H]1C(=O)N[C@@H]([C@@H](C)[C@@H](O)CO)C(=O)N2` (stereo partly drawn), the IC50 at 72 h in series [1] and in series [2] was 1000 nM throughout. Besides, the IC50 worked out at 1000 nM in the series with HeLa, 560 nM with HepG2 and 1 nM in series [3].

On to `C[C@H]([C@@H]1NC(=O)[C@@H]2C[C@@H](O)CN2C(=O)[C@H](CC(N)=O)NC(=O)[C@@H]2CSc3[nH]c4ccccc4c3C[C@H](NC1=O)C(=O)NCC(=O)N[C@H](C1CCCC1)C(=O)NCC(=O)N2)[C@@H](O)CO`, for which, in series [1], the IC50 at 72 h was 6900 nM. The compound also gave an IC50 in series [3] of 47 nM.

Turning to `CC[C@H](C)[C@@H]1NC(=O)CNC(=O)[C@@H]2Cc3c([nH]c4ccccc34)SC[C@H](NC(=O)CNC1=O)C(=O)N[C@@H](CC(N)=O)C(=O)N1C[C@H](O)C[C@H]1C(=O)N[C@@H]([C@@H](C)[C@@H](O)CO)C(=O)N2` (cyclo(CN[Hyp][Ile(4R-OH,5-OH)][Trp(2-yl)]GIG); thioether 1-5), the IC50 at 72 h in series [1] was found to be 1300 nM. In series [3], this compound showed an IC50 of 9.5 nM.

On to `CO[C@H](C)[C@@H]1NC(=O)CNC(=O)[C@@H]2Cc3c([nH]c4ccccc34)SC[C@H](NC(=O)CNC1=O)C(=O)N[C@@H](CC(N)=O)C(=O)N1C[C@H](O)C[C@H]1C(=O)N[C@@H]([C@@H](C)[C@@H](O)CO)C(=O)N2` (cyclo(CN[Hyp][Ile(4R-OH,5-OH)][Trp(2-yl)]GT(Me)G); thioether 1-5), for which the IC50 at 72 h in series [1] was > 20000 nM. The same compound displayed an IC50 in series [3] of 42 nM.

In the case of `CCC(CC)[C@@H]1NC(=O)CNC(=O)[C@@H]2Cc3c([nH]c4ccccc34)SC[C@H](NC(=O)CNC1=O)C(=O)N[C@@H](CC(N)=O)C(=O)N1C[C@H](O)C[C@H]1C(=O)N[C@@H]([C@@H](C)[C@@H](O)CO)C(=O)N2` (cyclo(CN[Hyp][Ile(4R-OH,5-OH)][Trp(2-yl)]G[Nva(3-Et)]G); thioether 1-5), the IC50 at 72 h in series [1] was 780 nM; in series [2] it was 370 nM. The IC50 in series [3] came to 8.5 nM.

For the compound `CS[C@H](C)[C@@H]1NC(=O)CNC(=O)[C@@H]2Cc3c([nH]c4ccccc34)SC[C@H](NC(=O)CNC1=O)C(=O)N[C@@H](CC(N)=O)C(=O)N1C[C@H](O)C[C@H]1C(=O)N[C@@H]([C@@H](C)[C@@H](O)CO)C(=O)N2` (cyclo(CN[Hyp][Ile(4R-OH,5-OH)][Trp(2-yl)]G[X1]G); thioether 1-5), the half-maximal inhibitory concentration (IC50) at 72 h in series [1] came to 5600 nM; in series [2], 1500 nM. Further, the IC50 in the series with HeLa was 4000 nM; in the series on HepG2 it was > 10000 nM; in series [3], 8.6 nM.

As to `CC[C@H](C)[C@H]1CNNC(=O)N[C@H]2CSc3[nH]c4ccccc4c3C[C@H](NC(=O)[C@H]([C@@H](C)[C@@H](O)CO)NC(=O)[C@@H]3C[C@@H](O)CN3C(=O)[C@H](CC(N)=O)NC2=O)C(=O)NCC(=O)N1` (cyclo(CN[Hyp][Ile(4R-OH,5-OH)][Trp(2-yl)]G[X2]); thioether 1-5), the IC50 at 72 h is 380 nM in series [1] and 460 nM in series [2]. In addition, the IC50 with HeLa turned out to be 830 nM; in the series with HepG2 it was 2700 nM; in series [3] it was 4.7 nM.

For the compound `CC[C@H](C)[C@]1(C)NC(=O)NNC(=O)[C@@H]2Cc3c([nH]c4ccccc34)SC[C@H](NC(=O)CNC1=O)C(=O)N[C@@H](CC(N)=O)C(=O)N1C[C@H](O)C[C@H]1C(=O)N[C@@H]([C@@H](C)[C@@H](O)CO)C(=O)N2` (cyclo(CN[Hyp][Ile(4R-OH,5-OH)][Trp(2-yl)][azaGly][αMeI]G); thioether 1-5), the IC50 at 72 h in series [1] worked out at 2400 nM; in series [2], 450 nM. Further, the midpoint of inhibition in series [3], the IC50, lay at 5.3 nM.

In the case of `CCC(CC)[C@@H]1NC(=O)CNC(=O)[C@@H]2Cc3c([nH]c4ccc(O)cc34)SC[C@H](NC(=O)CNC1=O)C(=O)N[C@@H](CC(N)=O)C(=O)N1C[C@H](O)C[C@H]1C(=O)N[C@@H]([C@@H](C)[C@@H](O)CO)C(=O)N2` (cyclo(CN[Hyp][Ile(4R-OH,5-OH)][X4]G[Nva(3-Et)]G); thioether 1-5), the figures for the IC50 at 72 h in series [1] and in series [2] were 2500 nM and 320 nM, respectively. The compound also had an IC50 in series [3] of 17.8 nM.

On to `CC[C@H](C)[C@@H]1NC(=O)CNC(=O)[C@@H]2Cc3c([nH]c4ccccc34)SC(C)(C)[C@H](NC(=O)CNC1=O)C(=O)N[C@@H](CC(N)=O)C(=O)N1C[C@H](O)C[C@H]1C(=O)N[C@@H]([C@@H](C)[C@@H](O)CO)C(=O)N2` (cyclo(GIG[Pen]N[Hyp][Ile(4R-OH,5-OH)][Trp(2-yl)]); thioether 4-8), for which the IC50 at 72 h in series [1] turned out to be 9300 nM. In series [3], this compound registered an IC50 of 17.7 nM.

`CC[C@H](C)[C@@H]1NC(=O)CNC(=O)[C@@H]2Cc3c([nH]c4ccccc34)S[C@@H](C)[C@H](NC(=O)CNC1=O)C(=O)N[C@@H](CC(N)=O)C(=O)N1C[C@H](O)C[C@H]1C(=O)N[C@@H]([C@@H](C)[C@@H](O)CO)C(=O)N2` (cyclo(GIG[X3]N[Hyp][Ile(4R-OH,5-OH)][Trp(2-yl)]); thioether 4-8): the values for the IC50 at 72 h in series [1] and in series [2] were 1300 nM and 510 nM, respectively. The same compound came in with an IC50 in series [3] of 10 nM.

Consider `CC[C@H](C)[C@@H]1NC(=O)CNC(=O)[C@@H]2Cc3c([nH]c4ccc(O)cc34)S[C@@H](C)[C@H](NC(=O)CNC1=O)C(=O)N[C@@H](CC(N)=O)C(=O)N1C[C@H](O)C[C@H]1C(=O)N[C@@H]([C@@H](C)[C@@H](O)CO)C(=O)N2` (cyclo(GIG[X3]N[Hyp][Ile(4R-OH,5-OH)][X4]); thioether 4-8), for which the results for the IC50 at 72 h in series [1] and in series [2] were 6900 nM and 880 nM, respectively. In addition, the IC50 in series [3] amounted to 14.7 nM.

Consider `CC[C@H](C)[C@@H]1NC(=O)CNC(=O)[C@@H]2Cc3c([nH]c4ccccc34)S[C@H](C)[C@H](NC(=O)CNC1=O)C(=O)N[C@@H](CC(N)=O)C(=O)N1C[C@H](O)C[C@H]1C(=O)N[C@@H]([C@@H](C)[C@@H](O)CO)C(=O)N2` (cyclo(GIG[X5]N[Hyp][Ile(4R-OH,5-OH)][Trp(2-yl)]); thioether 4-8), for which the IC50 at 72 h in series [1] is > 20000 nM. In addition, in series [3], the IC50 is > 128 nM.

Take `CCC(CC)[C@@H]1NC(=O)CNC(=O)[C@@H]2Cc3c([nH]c4ccccc34)S[C@@H](C)[C@H](NC(=O)CNC1=O)C(=O)N[C@@H](CC(N)=O)C(=O)N1C[C@H](O)C[C@H]1C(=O)N[C@@H]([C@@H](C)[C@@H](O)CO)C(=O)N2` (cyclo(G[Nva(3-Et)]G[X3]N[Hyp][Ile(4R-OH,5-OH)][Trp(2-yl)]); thioether 4-8): the IC50 at 72 h stood at 610 nM in series [1] and 200 nM in series [2]. For the same compound, the IC50 amounted to 600 nM in the series on HeLa, 110 nM in the series on HepG2 and 9.5 nM in series [3].

`CCC(CC)[C@@H]1NC(=O)CNC(=O)[C@@H]2Cc3c([nH]c4ccc(O)cc34)S[C@@H](C)[C@H](NC(=O)CNC1=O)C(=O)N[C@@H](CC(N)=O)C(=O)N1C[C@H](O)C[C@H]1C(=O)N[C@@H]([C@@H](C)[C@@H](O)CO)C(=O)N2` (cyclo(G[Nva(3-Et)]G[X3]N[Hyp][Ile(4R-OH,5-OH)][X4]); thioether 4-8): the results for the IC50 at 72 h in series [1] and in series [2] were 2400 nM and 510 nM, respectively. Further, 13.8 nM corresponded to half-maximal inhibition in series [3] (IC50).
